Measurements from US20010038832A1, “Nitric oxide and analogues thereof effectuate sensitization of neoplasm and immunologically undesired tissues to cytotoxicity” (priority 2000, published 2001).

What was measured:
Assay type in all cases: cell-based
[1] = test system: Fas receptor protein in AD10 cells; experiment: Fas receptor protein level by Western blot, AD10 cells; settings: FIG. 6C
Method: Now referring to FIG. 6C, the upregulation of Fas receptor was corroborated by Western blot. IFN-γ induced AD10 cells (1×10^7/plate) were cultured in a 100-mm plate supplemented with 10% FCS.
This example describes one preferred method of determining protein expression. Cell extracts for iNOS and Fas receptor analysis were prepared by lysing 5×10^6 cells in 1 mL phosphate buffer solution [10 mM EDTA, 1% triton X-100, 1 mM Phenylmethylsulfonyl fluoride (PMSF) and 0.01% leupeptin]. Cell lysates were boiled (3 min) with 1 volume gel loading buffer [50 mM Tris/10% sodium dodecyl sulfate (SDS)/10% glycerol/10% 2-mecaptoethanol/2 mg/mL bromophenol blue] and centrifuged at 1×10^4 g for 10 min. Protein concentrations of the supernatants were determined according to Bradford, and total protein equivalents for each sample were separated on 12% SDS-polyacrylamide minigels (Bio-Rad, Richmond, Calif.) and transferred to nitrocellulose membranes (Amersham Corp., Arlington Heights, Ill.). Nonspecific immunoglobulin G (IgG) binding sites were blocked with 5% dried milk protein, and samples were then incubated with the antibody to iNOS [1:1000] (Transduction Laboratories, Lexington, Ky.) or CD95 [1:500] (PharMingen, San Diego, Calif.).

[2] = test system: Fas surface molecule on AD10 cells; experiment: Fas surface molecule expression by flow cytometry, AD10 cells
Method: (§1) This example describes one preferred method of separating and sorting cells through fluorescence-activated cell sorting (FACS). Surface Fas antigen expression on tumor cells was determined by flow cytometry. Briefly, harvested cells were washed with cold buffer consisting of PBS without Ca^++ or Mg^++ with 2% heat-inactivated FCS and 0.1% sodium azide. 2×10^5 cells per sample were pretreated with human AB serum (Gemini Bioproducts, Calabasas, Calif.) for 1 h, washed twice and resuspended in 50 μl of PBS. The cells were incubated with 10 μg/mL of anti-Fas monoclonal antibody FITC-conjugated (PharMingen, San Diego, Calif.) or isotype control antibody for 1 h. The cells were then washed twice and fixed in 2% paraformaldehyde solution (Sigma Chemical Co., St. Louis, Mo.) and flow cytometry was conducted all the FACScan facility of the UCLA Department of Microbiology and Immunology.

AD10 cells [3] = experiment: Fas-mediated cytotoxicity (CH11, LDH release), AD10 cells
Method: (§2) In a preferred embodiment, A2780 and AD10 cells (1×10^4 cells/well) were cultured in 96-well plates supplemented with 10%FCS and pretreated with increasing concentrations of IFN-γ (0, 10, 100 and 1000 U/mL) 18 h prior to performing the cytotoxicity assay with increasing concentrations of the anti-Fas agonist antibody CH11 (0, 0.01, and 0.1 μg/mL).
(§3) Now also referring to FIGS. 3A and B, therein the role of iNOS in the mechanism of sensitization to Fas-mediated cytotoxicity of ovarian carcinoma cells is illustrated. Ovarian carcinoma cells, A2780 and AD10, were respectively incubated in the presence or in the absence of the competitive NOS inhibitor L-NMA (1 mM) 6 h prior to IFN-γ treatment. […] Furthermore, it is herein illustrated that the parental cell line A2780, which is not able to express iNOS upon IFN-γ stimulation, was not sensitized at the same level when compared with the adriamycin resistant cell line AD10, which is induced by IFN-γ alone to express iNOS.
(§4) The role of the endogenously generated NO in the IFN-γ-mediated sensitization to Fas-induced apoptosis was corroborated by the use of an exogenous source of NO, which mimics the production of NO by iNOS. […]
(§5) This example describes a preferred method of determining cytotoxicity. Sensitization to Fas-mediated apoptosis was assessed using the agonist anti-Fas monoclonal antibody CH11(IgM) [0.01, 0.1 and 1 μg/mL] […] After the initial incubation for each different experimental condition, released LDH into the culture supernatants was measured with a 30-minute coupled enzymatic assay which results in the conversion of a tetrazolium salt (INT) into a red formazan product that is read at 490 nm in an automated plate reader (Emax, Molecular Devices, Sunnyvale, Calif.). Percentage cytotoxicity was calculated using the spontaneous release-corrected OD as follows: % cytotoxicity=(OD of experimental well/OD of maximum release control well)×100.

[4] = test system: Fas receptor mRNA in AD10 cells; experiment: Fas receptor mRNA expression by RT-PCR, AD10 cells
A2780 cells = experiment: Fas-mediated cytotoxicity (CH11, LDH release), A2780 cells
Method: as §2, §3, §4, §5

AD10 cells [5] = experiment: Apoptosis by acridine orange/ethidium bromide staining, AD10 cells
Method: Now referring to FIGS. 5a through f, sensitization of AD10 to CH11 (Fas-ligand agonist)-mediated cytotoxicity was due to apoptosis. The morphological pattern was examined by staining the ovarian carcinoma cells with acridine orange/ethidium bromide (AO/EB).
This example describes one preferred embodiment for determining apoptosis through acridine orange/ethidium bromide staining. Characteristic apoptotic morphological changes were assessed by fluorescent microscopy using the acridine-orange and ethidium bromide staining (AO/EB) method. Briefly, adherent cells, under different experimental conditions, were cultured in 24 wells plates, and washed with PBS once prior to staining. Monolayers of adherent cells were covered with 100 μl of AO/EB solution (4 μg/mL of each). Immediately after adding the AO/EB solution, each sample was examined under an inverted/fluorescent microscope.

[6] = test system: NO production by iNOS in AD10 cells; experiment: NO2-/NO3- release into culture medium (Griess reaction), AD10 cells; settings: FIG. 1B
Method: (§6) The activity of iNOS and generated NO were monitored by the release of NO2^−/NO3^− into the cell culture medium as determined by the Griess reaction.
(§7) This example describes one preferred method of determining nitrate and nitrite concentrations. Nitric oxide generation was monitored indirectly by levels of nitrite/nitrate (NO2^−/NO3^−) released into the culture medium as determined by the diazotization reaction of Griess with NaNO2 as standard Briefly, 50 μl aliquots of cell culture supernatants from each sample were mixed with one volume of Griess reagent [1% sulfanilamide; 0.1% naphthylethylene diamine dihydrochloride; 2.5% H3PO4] and incubated at room temperature for 10 min. The absorbance at 550 nm was measured in an automated plate reader (Emax, Molecular Devices, Sunnyvale, Calif.). Nitrite concentrations were calculated by comparison with OD550 values of standard solutions of sodium nitrite prepared in culture medium.

[7] = test system: Fas surface molecule on A2780 cells; experiment: Fas surface molecule expression by flow cytometry, A2780 cells; settings: A2780, FIG. 6D legend
Method: as §1

[8] = test system: iNOS expression in A2780 ovarian carcinoma cell line; experiment: iNOS expression in A2780 cells; settings: parental A2780 cell line, data not shown
[9] = test system: iNOS mRNA in AD10 ovarian carcinoma cells; experiment: iNOS mRNA expression by semiquantitative RT-PCR in AD10 cells; settings: 18 hours, FIG. 1A
[10] = test system: NO generation in A2780 cells; experiment: NO generation upon IFN-γ stimulation, A2780 cells
Method: as §6, §7

CC(=O)N[C@H](C(=O)O)C(C)(C)SN=O (racemic) [SNAP, S-Nitroso-N-acetylpenicillamine]
Fas protein level after addition of SNAP to IFN-γ plus NOS inhibitor [1]: restored | Fas surface expression after NO donor added to IFN-γ plus NOS inhibitor ([2]; AD10, FIG. 6D): restored | sensitization to Fas-mediated cytotoxicity by NO donor (AD10 cells [3]; AD10, NO donor 10 and 100 μM for 24 h before CH11, LDH release, FIG. 4B): sensitized | Fas receptor mRNA expression with NO donor ([4]; AD10, SNAP 0, 1, 10 and 100 μM, 18 h, FIG. 6A): upregulated Fas receptor mRNA expression | sensitization to Fas-mediated cytotoxicity by NO donor (A2780 cells; A2780, NO donor 10 and 100 μM for 24 h before CH11, LDH release, FIG. 4A): sensitized | number of apoptotic cells, NO donor alone (AD10 cells [5]; AD10, NO donor alone, no CH11): did not increase the number of apoptotic cells | frequency of cells undergoing apoptosis, NO donor prior to CH11 (AD10 cells [5]; AD10, SNAP prior to exposure to CH11): increased the frequency of cells undergoing characteristic apoptosis

CNC(=N)NCCC[C@H](N)C(=O)O [L-NMA, N^G-Monomethyl-L-arginine]
IFN-γ mediated upregulation of Fas protein level in presence of NOS inhibitor [1]: markedly reduced | IFN-γ-increased Fas surface expression with NOS inhibitor ([2]; AD10, IFN-γ 10 U/mL, FIG. 6D): partially blocked | effect of NOS inhibition on IFN-γ-mediated sensitization to Fas-mediated apoptosis (AD10 cells [3]; AD10, L-NMA 1 mM 6 h prior to IFN-γ, FIG. 3B): significantly decreased | effect of NOS inhibitor on IFN-γ-induced NO2-/NO3- generation ([6]; L-NMA 1.0 mM prior to IFN-γ induction): blocking the generation of NO2^−/NO3^− | Fas mRNA expression with NOS blocking ([4]; AD10, IFN-γ 10 and 100 U/mL, L-NMA 1.0 mM, 24 hours, FIG. 6B): markedly reduced | effect of NOS inhibition on IFN-γ-mediated sensitization to Fas-mediated apoptosis (A2780 cells; A2780, L-NMA 1 mM 6 h prior to IFN-γ, FIG. 3A): did not respond to NOS blocking | frequency of cells undergoing apoptosis with NOS inhibitor (AD10 cells [5]; AD10, L-NMA 1 mM 6 h prior to IFN-γ pretreatment, then CH11): significantly reduced

IFN-γ: human recombinant IFN-γ, gamma interferon cytokine
Fas protein level with IFN-γ [1]: upregulation of Fas protein level | expression of Fas surface molecule vs untreated control cells ([2]; AD10, IFN-γ 10 U/mL, 18 hours, FIG. 6D): increased expression | expression of Fas surface molecule with IFN-γ [7]: increased expression | iNOS expression upon IFN-γ treatment [8]: not possible to detect any iNOS expression | production of NO (nitrites and nitrates in culture medium) upon IFN-γ ([6]; IFN-γ 0 to 1000 U/ml, 18 hours): can be induced by IFN-γ to produce NO by iNOS | IFN-γ concentration at which significant levels of iNOS mRNA were observed ([9]; 1% FCS): 1 U/mL | IFN-γ concentration at which plateau of iNOS mRNA expression was reached [9]: 100 U/mL | NO generation upon IFN-γ stimulation [10]: cannot generate NO | frequency of cells undergoing apoptosis vs untreated control group (AD10 cells [5]; AD10, IFN-γ 18 h then CH11 0.1 μg/mL 6 h): greater frequency of cells undergoing apoptosis

B1: IFN-γ: human recombinant IFN-γ, gamma interferon cytokine (protein, UniProt P01579 24-161, looked up)
Interferon gamma: QDPYVKEAENLKKYFNAGHSDVADNGTLFLGILKNWKEESDRKIMQSQIVSFYFKLFKNFKDDQSIQKSVETIKEDMNVKFFNSNKKKRDDFEKLTNYSVTDLNVQRKAIHELIQVMAELSPAAKTGKRKRSQMLFRG
sensitization to Fas-mediated cytotoxicity compared with untreated control group (AD10 cells [3]; AD10, IFN-γ pretreatment 18 h, then CH11, FIG. 2B): 10 fold | capacity of being sensitized by IFN-γ to Fas-mediated cytotoxicity (A2780 cells; A2780 compared with AD10, IFN-γ 18 h then CH11, FIG. 2A): lower capacity of being sensitized
